System: human plasma
Test: Prothrombin Time, Example 4
Type: biochemical
Source text: The evaluation procedure used is that described in "Human Blood Coagulation, Haemostasis and Thrombosis", edited by Rosemary Biggs, published by Blackwell Scientific Publications, Oxford, England (2nd Edition), pages 670-705, 1976. […]

Substance: Sodium bisulphite
- PT (Sodium bisulphite 0.01 mg/ml, solution D, Control 34.67): 33.37 s
- PT (Sodium bisulphite 0.05 mg/ml, solution D, Control 34.67): 34.00 s
- PT (Sodium bisulphite 0.1 mg/ml, solution D, Control 34.67): 34.85 s
- PT (Sodium bisulphite 0.5 mg/ml, solution D, Control 34.67): 42.73 s
- PT (Sodium bisulphite 1.0 mg/ml, solution D, Control 34.67): 85.33 s
- PT (Sodium bisulphite 5.0 mg/ml, solution D, Control 34.67): >150 s
- PT (chemical grade sodium bisulphite 0.01 mg/ml, Control 12.20): 12.30 s
- PT (chemical grade sodium bisulphite 0.05 mg/ml, Control 12.20): 12.47 s
- PT (chemical grade sodium bisulphite 0.1 mg/ml, Control 12.20): 12.90 s
- PT (chemical grade sodium bisulphite 0.5 mg/ml, Control 12.20): 16.10 s
- PT (chemical grade sodium bisulphite 1.0 mg/ml, Control 12.20): 22.38 s
- PT (chemical grade sodium bisulphite 5.0 mg/ml, Control 12.20): >150 s

Source: patent EP0055702B1, “Antithrombotic treatment” (priority 1980, dated 1982)
